Test results published in the supplement of paper PMC11781733.
Structures can show the parent of a compound that is named as a salt.

Assays:
Details in all cases: exposure time: 15 min to 3 h acute
[1] = system: Dugesia japonica; experiment: crawl-out incidence (% planarians); higher = higher incidence or increase relative to vehicle control
Experimental: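 Adult asexual Dugesia japonica planarians (1 per well, 48-well plate, n=24 over technical triplicates) were exposed acutely (15 min to 3 h) to each compound (0.5% DMSO or water vehicle) and screened on a robotic platform for crawl-out, stickiness, body shape, phototaxis, noxious-heat scrunching and locomotion endpoints. Binary endpoints are incidence rate x100. Continuous endpoints are the median response normalised to the plate vehicle median, as % change or difference. Negative incidences after vehicle subtraction were set to 0.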

[2] = system: Dugesia japonica; experiment: speed in dark vs vehicle (% change vs vehicle); higher = higher incidence or increase relative to vehicle control
Experimental: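 Adult asexual Dugesia japonica planarians (1 per well, 48-well plate, n=24 over technical triplicates) were exposed acutely (15 min to 3 h) to each compound (0.5% DMSO or water vehicle) and screened on a robotic platform for crawl-out, stickiness, body shape, phototaxis, noxious-heat scrunching and locomotion endpoints. Binary endpoints are incidence rate x100 normalised to in-plate vehicle controls. Continuous endpoints are the median response normalised to the plate vehicle median, as % change or difference. Negative incidences after vehicle subtraction were set to 0.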

[3] = system: Dugesia japonica; experiment: C-shape incidence (% planarians (vehicle-normalised)); higher = higher incidence or increase relative to vehicle control
In short: (§1)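 D. japonica planarians (fasted 5–7 days), one per well in 200 μL in sealed 48-well plates, were screened within 15 minutes–3 hours of exposure to at least 5 concentrations. Body shapes (contraction, C-shape, corkscrew, hyperkinesis) were scored manually and blind by a researcher; worms that crawled out were excluded. The value is the incidence of the given shape, or of any abnormal shape, ×100, normalised to in-plate vehicle controls, with negatives set to 0.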

[4] = system: Dugesia japonica; experiment: corkscrew incidence (% planarians (vehicle-normalised)); higher = higher incidence or increase relative to vehicle control
In short: as §1

[5] = system: Dugesia japonica; experiment: stickiness incidence (% planarians (vehicle-normalised)); higher = higher incidence or increase relative to vehicle control
In short: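 Fasted Dugesia japonica planarians, one per well of a sealed 48-well plate in 200 μL solution, were tested 15 min–3 h after exposure to half- or quarter-log concentration series. The vehicle was 0.5% DMSO or water. Stickiness was scored as a binary endpoint in the Stickiness assay, pooling technical triplicates (n = 24). Incidence was normalised to in-plate vehicle incidence, with negatives set to 0, and multiplied by 100. Crawled-out worms were excluded.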

[6] = system: Dugesia japonica; experiment: hyperkinesis incidence (% planarians (vehicle-normalised)); higher = higher incidence or increase relative to vehicle control
In short: as §1

[7] = system: Dugesia japonica; experiment: speed first 30 s blue light vs vehicle (% change vs vehicle); higher = higher incidence or increase relative to vehicle control
In short: (§2)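 Crawling speed is given as the median percent change after each worm was normalised to its plate's vehicle median, leaving out worms that crawled out. Fasted, intact Dugesia japonica were placed one per well in 200 μL in 48-well plates and tracked automatically in darkness or during blue-light periods, 15 min to 3 h after exposure in 0.5% DMSO or water vehicle. Runs used eight worms per concentration per plate in technical triplicate (n = 24).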

[8] = system: Dugesia japonica; experiment: speed second 30 s blue light vs vehicle (% change vs vehicle); higher = higher incidence or increase relative to vehicle control
In short: as §2

[9] = system: Dugesia japonica; experiment: pharynx extrusion incidence (% planarians (vehicle-normalised)); higher = higher incidence or increase relative to vehicle control
In short: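 Intact, fasted Dugesia japonica were placed one per well in 48-well plates with 200 μL each and scored 15 min to 3 h after exposure in either water or 0.5% DMSO vehicle. Pharynx extrusion was judged manually and blind as a body-shape category. Each concentration used eight worms per plate in technical triplicate (n = 24). Incidence was normalised to vehicle controls on the same plate, negative values were set to 0, and worms that crawled out were excluded.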

[10] = system: Dugesia japonica; experiment: loss of phototaxis incidence (% planarians (vehicle-normalised)); higher = higher incidence or increase relative to vehicle control
In short: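 Intact, fasted Dugesia japonica were tested 15 min to 3 h after exposure in 0.5% DMSO or water vehicle, one per well of a 48-well plate in 200 μL. Automated object tracking was used to score each worm for loss of phototaxis as a yes/no result. With eight worms per concentration per plate in technical triplicate (n = 24), worms that crawled out were excluded. The incidence rate ×100 was normalised to in-plate vehicle controls and negatives were set to 0.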

[11] = system: Dugesia japonica; experiment: total locomotor bursts minus vehicle (bursts difference vs vehicle); higher = higher incidence or increase relative to vehicle control
In short: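 Fasted Dugesia japonica planarians were placed one per well in a sealed 48-well plate with 200 μL solution and exposed to half- or quarter-log concentration series, with 0.5% DMSO or water as vehicle. Testing took place 15 min–3 h after exposure, with technical triplicates totalling n = 24. Total locomotor bursts, an unstimulated behaviour, were scored by image-based object tracking, and the plate vehicle-control median was subtracted from each planarian's value without scaling. The reported value is the median normalised response, excluding worms that crawled out.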

[12] = system: Dugesia japonica; experiment: noxious heat displacement strength vs vehicle (% change vs vehicle); higher = higher incidence or increase relative to vehicle control
In short: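 In the scrunching assay, displacement strength under noxious heat was tracked automatically in intact, fasted Dugesia japonica and expressed as the median percent change from the plate's vehicle median. Testing took place 15 min to 3 h after exposure in 0.5% DMSO or water vehicle, with one worm per well of a 48-well plate in 200 μL. Eight worms per concentration per plate were tested in technical triplicate (n = 24), and any that crawled out were left out.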

[13] = system: Dugesia japonica; experiment: contracted body shape incidence (% planarians (vehicle-normalised)); higher = higher incidence or increase relative to vehicle control
In short: as §1

[14] = system: Dugesia japonica; experiment: anxiety (time in outer well region) vs vehicle (% change vs vehicle); higher = higher incidence or increase relative to vehicle control
In short: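 Each planarian's time in the outer portion of its well was scored, worms that crawled out were dropped, and the median normalized response is reported. Fasted 5–7 days, D. japonica worms were tested singly in 200 μL in sealed 48-well plates at at least 5 concentrations, n = 24 per concentration, within 15 minutes–3 hours. Each response was normalized by dividing by, or subtracting, the plate vehicle median and multiplying by 100.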

[15] = system: Dugesia japonica; experiment: any abnormal body shape incidence (% planarians (vehicle-normalised)); higher = higher incidence or increase relative to vehicle control
In short: as §1

[16] = system: Dugesia japonica; experiment: resting fraction in dark vs vehicle (difference in fraction x100 vs vehicle); higher = higher incidence or increase relative to vehicle control
In short: (§3)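 Resting fraction in the dark or under blue light is reported as a median from automated tracking of intact, fasted Dugesia japonica. Worms were held one per well of a 48-well plate in 200 μL and tested 15 min to 3 h after exposure in 0.5% DMSO or water vehicle. Each worm's value was its difference from the plate's vehicle median multiplied by 100, and worms that crawled out were excluded.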

[17] = system: Dugesia japonica; experiment: loss of heat-induced scrunching incidence (% planarians (vehicle-normalised)); higher = higher incidence or increase relative to vehicle control
In short: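 The incidence of worms lacking a scrunching response to a noxious heat stimulus, normalised to vehicle controls within each plate, is the value listed. It appears ×100 with negatives set to 0. Single D. japonica planarians in 200 μL per well of 48-well plates were exposed to at least 5 concentrations (n = 24 per concentration) and tested within 15 minutes–3 hours, excluding worms that crawled out.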

[18] = system: Dugesia japonica; experiment: resting fraction in blue light vs vehicle (difference in fraction x100 vs vehicle); higher = higher incidence or increase relative to vehicle control
In short: as §3

[19] = system: Dugesia japonica; experiment: crawl-out incidence (% planarians); higher = higher incidence or increase relative to vehicle control; remark: listed apart in the source
[20] = system: Dugesia japonica; experiment: speed in dark vs vehicle (% change vs vehicle); higher = higher incidence or increase relative to vehicle control; remark: listed apart in the source
In short: as §2

Structure (SMILES)	crawl-out incidence [1]	speed in dark [2]	C-shape incidence [3]	corkscrew incidence [4]	stickiness incidence [5]	hyperkinesis incidence [6]	speed first 30 s blue light [7]	speed second 30 s blue light [8]	pharynx extrusion incidence [9]	loss of phototaxis incidence [10]	total locomotor bursts minus vehicle [11]	noxious heat displacement strength [12]	contracted body shape incidence [13]	anxiety [14]	any abnormal body shape incidence [15]	resting fraction in dark [16]	loss of heat-induced scrunching incidence [17]	resting fraction in blue light [18]	crawl-out incidence [19]	speed in dark [20]
O=C1CCc2ccc(OCCCCN3CCN(c4cccc(Cl)c4Cl)CC3)cc2N1 [aripiprazole] (1 µM)	0	42.8	0	0	≤ 0	0	26	14.3	0	29.2	-5.5	14.8	0	1.67	0	-2.8	≤ 0	-0.33		
O=C(CCCN1CCC(O)(c2ccc(Br)cc2)CC1)c1ccc(F)cc1 [bromperidol] (1 µM)	12.5	-18.6	0	4.35	≤ 0	17.4	-39.2	-17.1	0	≤ 0	2.5	-35.1	0	7.55	17.4	14.6	30.4	17.6		
CC(NC(C)(C)C)C(=O)c1cccc(Cl)c1 (configuration not stated) [bupropion] (10 µM)	0	-21.4	0	0	≤ 0	0	-36.3	0.8	0	12.5	-6	-1.43	0	3.29	0	34.4	4.17	12.6		
O=C1CC2(CCCC2)CC(=O)N1CCCCN1CCN(c2ncccn2)CC1 [buspirone] (1 µM)	0	11.8	4.17	0	≤ 0	8.33	-6.54	-19.1	0	16.7	0.5	-21.9	0	3.11	12.5	-6.06	≤ 0	4.28		
CN(C)CCCC1(c2ccc(F)cc2)OCc2cc(C#N)ccc21 (configuration not stated) [citalopram hydrobromide] (10 µM)	0	-7.94	0	0	12.5	8.33	9.22	-12.8	0	16.7	1.75	-8.3	0	5.9	12.5	1.41	25	0.82		
CN1CCN(C2=Nc3cc(Cl)ccc3Nc3ccccc32)CC1 [clozapine] (1 µM)	0	-73.5	0	0	4.17	8.33	-82	-79.8	0	8.33	38.8	-43.5	4.17	-1.98	8.33	55.3	4.17	36.4		
CN1C(=O)CN=C(c2ccccc2)c2cc(Cl)ccc21 [diazepam] (1 µM)	0	23.3	0	0	4.17	0	30.1	-4.48	0	8.33	-4.5	-18.8	0	2.23	0	-6.08	12.5	-0.17		
O=C(CCCN1CC=C(n2c(=O)[nH]c3ccccc32)CC1)c1ccc(F)cc1 [droperidol] (1 µM)	0	-60.7	0	4.17	≤ 0	12.5	-63.6	-69.5	0	16.7	11.8	-54.4	0	11.5	16.7	3.77	58.3	9.81		
CN(C)CCC[C@@]1(c2ccc(F)cc2)OCc2cc(C#N)ccc21 [escitalopram] (10 µM)	0	22.6	0	0	16.7	0	23.1	16	0	≤ 0	0.5	-2.51	0	1.04	0	-4.34	8.33	0		
CN1CC(=O)N=C1NC(=O)Nc1cccc(Cl)c1 [fenobam] (56.2 µM)	0	-1.71	0	0	≤ 0	0	-6.17	-8.21	0	12.5	-0.5	-21.7	0	9.05	0	-0.17	≤ 0	0		
CNCCC(Oc1ccc(C(F)(F)F)cc1)c1ccccc1 (configuration not stated) [fluoxetine hydrochloride] (1 µM)	0	33.6	0	0	4.17	0	33.5	14.9	0	≤ 0	-7	12	0	6.17	0	-9.67	8.33	-1.64		
O=C(CCCN1CCC(O)(c2ccc(Cl)cc2)CC1)c1ccc(F)cc1 [haloperidol] (1 µM)	4.17	-17.7	0	0	≤ 0	0	-26.1	-36.1	0	21.7	0	-20.5	4.35	1.11	4.35	32.1	≤ 0	10.1		
CN(C)CCCN1c2ccccc2CCc2ccccc21 [imipramine] (0.316 µM)	0	-16.2	0	0	≤ 0	0	-17.6	-12.2	0	4.17	5.25	23.7	4.17	-0.7	8.33	5.24	≤ 0	1.3		
CCCCNc1c(C(=O)OCC)c(C)nc2c1cnn2CC [tracazolate hydrochloride] (100 µM)			87.5	12.5	≤ 0	70.8	-91.5	-91.7	8.33	12.5	81.5	-63.6	4.17	-79.8	91.7	61.7	29.2	59	0	-83.4
